In patent publication US8519061B2, “Controlled release remediation system and composition” (North Carolina A&T State University, priority 2008, dated 2013):

Test system: E. coli
Test: E. coli colony counts, Membrane Filter Count Method, Country Park Lake water
Format: cell-based, Escherichia coli
Procedure: These pellets were used to evaluate the removal of Escherichia coli (commonly E. coli) from publicly accessible water. […] Recreational use of the publicly accessible water in this area is restricted due to high E. coli concentrations that can lead to illness.
Water samples including control water samples and publicly accessible water samples (from Country Park Lake) at concentrations of 1 ml, 0.1 ml, 0.01 ml, and 0.001 ml were prepared for evaluation.
The water samples were filtered through 5 μm filters and bacteria was cultured in petri dishes with m-Endo broth (e.g., commercially available form BD Diagnostic Systems Sparks, Md.) for 24-hours at 35° C. If E. coli was present in the filtered water sample, metallic purple/red E. coli colonies would grow on the filter in the petri dish. For this analysis, the larger the water sample filtered, the higher the concentration of E. coli which would grow within the 24-hour window. To analyze the amount of E. coli on the filter, the goal was to determine the appropriate water dilution amount to obtain filters where the number of colonies could be counted. If the filter was covered with E. coli, the petri dish was classified as “To numerous to count”. When an acceptable number of countable colonies was obtained, the number of colonies/100 ml was calculated for the water sample.

O=S(=O)([O-])OO.[K+] [Oxone ® compound, potassium hydrogen peroxymonosulfate sulfate (5:3:2:2)]
E. coli Colony Counts, 0.1 ml dilution plates: No colonies | E. coli Colony Counts, 1 ml dilution plates: No colonies | E. coli Colony Counts, Average 24 hours # colonies/100 ml: No colonies | Removal of E. coli from treated water: complete removal
